Measurements from ChEMBL document CHEMBL1201862, “PubChem BioAssay data set” (2004).
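Five compound concentrations were applied to cells in 96-well plates for 48 hours; endpoints were derived by simple linear interpolation of the resulting dose-response curve. Abbreviation: GI50, concentration required for 50% inhibition of growth.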 Calls of active or inactive are those of the source. Rule as the data show it: active = GI50 up to about 1.1 µM and inactive = higher.

How the values were obtained:
Test in all cases: NCI-60 cell line screen, 48 h
[1] = system: A549
[2] = system: ACHN
[3] = system: CCRF-CEM
[4] = system: COLO 205
[5] = system: EKVX
[6] = system: HCT-116
[7] = system: HT-29
[8] = system: KM12
[9] = system: LOX IMVI
[10] = system: M14
[11] = system: NCI-H226
[12] = system: NCI-H522
[13] = system: RPMI-8226
[14] = system: SF-539
[15] = system: SK-OV-3
[16] = system: SNB-19
[17] = system: SW-620
[18] = system: U-251
[19] = system: UACC-62
[20] = system: SNB-75

In the case of `C=C1CC/C=C(/C(=O)O)CC[C@H]2[C@@H]1CC2(C)C`, the GI50 [1] is reported as > 100 µM (inactive), the GI50 [2] is reported as > 100 µM (inactive) and the GI50 [3] is reported as > 100 µM (inactive). For the same compound, the GI50 [4] was > 100 µM (inactive), the GI50 [5] was > 100 µM (inactive) and the GI50 [6] was > 100 µM (inactive). For the same compound, the GI50 [7] was > 100 µM (inactive), the GI50 [8] was > 100 µM (inactive) and the GI50 [9] was > 100 µM (inactive). For the same compound, the GI50 [10] was > 100 µM (inactive), the GI50 [11] was > 100 µM (inactive) and the GI50 [12] was > 100 µM (inactive). For the same compound, the GI50 [13] was > 100 µM (inactive), the GI50 [14] was > 100 µM (inactive) and the GI50 [15] was > 100 µM (inactive). The GI50 [16] was > 100 µM (inactive), the GI50 [17] was > 100 µM (inactive) and the GI50 [18] was > 100 µM (inactive). The GI50 [19] was > 100 µM (inactive).
In the case of `COC1=CC(=C(C#N)/C(=N\c2ccccc2)SC)C=C(OC)C1=O`, the GI50 [1] is reported as 78.9 µM (inactive), the GI50 [2] is reported as 40.8 µM (inactive) and the GI50 [3] is reported as 16 µM (inactive). The GI50 [4] was > 100 µM (inactive), the GI50 [5] was > 100 µM (inactive) and the GI50 [6] was 29.9 µM (inactive). For the same compound, the GI50 [7] was > 100 µM (inactive), the GI50 [8] was 63.2 µM (inactive) and the GI50 [9] was 39.5 µM (inactive). The GI50 [10] was > 10 µM (inactive), the GI50 [12] was 37.6 µM (inactive) and the GI50 [13] was 18.8 µM (inactive). For the same compound, the GI50 [14] was > 100 µM (inactive), the GI50 [15] was > 100 µM (inactive) and the GI50 [20] was 95.3 µM (inactive). For the same compound, the GI50 [17] was 38.7 µM (inactive), the GI50 [18] was 0.352 µM (active) and the GI50 [19] was 44.3 µM (inactive).
With `Cc1c(Cl)ccc2c1NC(=O)C2(O)C1Cc2ccccc2C1=O` (stereo not drawn) the GI50 [1] was > 100 µM (inactive), the GI50 [2] was > 100 µM (inactive) and the GI50 [3] was 26.1 µM (inactive). The GI50 [4] was > 100 µM (inactive), the GI50 [5] was > 100 µM (inactive) and the GI50 [6] was 62.7 µM (inactive). The GI50 [7] was > 100 µM (inactive), the GI50 [8] was > 100 µM (inactive) and the GI50 [9] was > 100 µM (inactive). For the same compound, the GI50 [10] was > 100 µM (inactive), the GI50 [11] was > 100 µM (inactive) and the GI50 [12] was > 100 µM (inactive). For the same compound, the GI50 [13] was 42.5 µM (inactive), the GI50 [14] was > 100 µM (inactive) and the GI50 [15] was > 100 µM (inactive). The GI50 [16] was > 100 µM (inactive), the GI50 [17] was > 100 µM (inactive) and the GI50 [18] was 27.7 µM (inactive). For the same compound, the GI50 [19] was 72.6 µM (inactive).
For `CC1=CC(=O)N(n2c(Cc3ccc(Cl)cc3)n[nH]c2=O)C1=O`, the GI50 [1] was 77.6 µM (inactive), the GI50 [2] was 82 µM (inactive) and the GI50 [3] was 7.91 µM (inactive). The GI50 [4] was 71.3 µM (inactive), the GI50 [5] was 49 µM (inactive) and the GI50 [6] was 40.3 µM (inactive). For the same compound, the GI50 [7] was 19.5 µM (inactive), the GI50 [8] was 52.4 µM (inactive) and the GI50 [9] was 27.6 µM (inactive). The GI50 [10] was 47.9 µM (inactive), the GI50 [11] was > 100 µM (inactive) and the GI50 [12] was 17.4 µM (inactive). The GI50 [13] was 22.6 µM (inactive), the GI50 [14] was 39.1 µM (inactive) and the GI50 [15] was > 100 µM (inactive). For the same compound, the GI50 [16] was 55.6 µM (inactive), the GI50 [17] was 32.5 µM (inactive) and the GI50 [18] was 27.2 µM (inactive). The GI50 [19] was 19.3 µM (inactive).
In the case of `COC(=O)C(=O)C(CC(=O)Nc1ccc(C)cc1)C(=O)OC` (stereo not drawn), the GI50 [1] is reported as > 100 µM (inactive), the GI50 [2] is reported as > 100 µM (inactive) and the GI50 [3] is reported as > 100 µM (inactive). For the same compound, the GI50 [5] was > 100 µM (inactive), the GI50 [6] was > 100 µM (inactive) and the GI50 [7] was > 100 µM (inactive). For the same compound, the GI50 [8] was > 100 µM (inactive), the GI50 [9] was > 100 µM (inactive) and the GI50 [10] was > 100 µM (inactive). For the same compound, the GI50 [11] was > 100 µM (inactive), the GI50 [12] was > 100 µM (inactive) and the GI50 [13] was > 100 µM (inactive). For the same compound, the GI50 [14] was > 100 µM (inactive), the GI50 [15] was > 100 µM (inactive) and the GI50 [16] was > 100 µM (inactive). The GI50 [17] was > 100 µM (inactive), the GI50 [18] was > 100 µM (inactive) and the GI50 [19] was > 100 µM (inactive).
In the case of `Clc1ccccc1C1=NN(c2ccccc2)C2c3ccccc3OCC12` (stereo not drawn), the GI50 [1] is reported as > 100 µM (inactive), the GI50 [2] is reported as > 100 µM (inactive) and the GI50 [3] is reported as 64.9 µM (inactive). For the same compound, the GI50 [4] was > 100 µM (inactive), the GI50 [5] was > 100 µM (inactive) and the GI50 [6] was 43.3 µM (inactive). The GI50 [7] was 58.5 µM (inactive), the GI50 [8] was > 100 µM (inactive) and the GI50 [9] was 88.1 µM (inactive). The GI50 [12] was > 100 µM (inactive), the GI50 [13] was 34.1 µM (inactive) and the GI50 [15] was > 100 µM (inactive). For the same compound, the GI50 [16] was > 100 µM (inactive), the GI50 [20] was > 100 µM (inactive) and the GI50 [17] was > 100 µM (inactive). For the same compound, the GI50 [18] was > 100 µM (inactive).
With `CC1(C)[C@@H]2C[C@H]1C(Cc1ccccc1C[C@H]1c3cc(-c4ccccn4)ncc3[C@H]3C[C@@H]1C3(C)C)c1cc(-c3ccccn3)ncc12` (stereo partly drawn) the GI50 [1] was 0.371 µM (active), the GI50 [2] was 0.204 µM (active) and the GI50 [3] was 0.223 µM (active). For the same compound, the GI50 [4] was 0.399 µM (active), the GI50 [5] was 0.461 µM (active) and the GI50 [6] was 0.342 µM (active). For the same compound, the GI50 [7] was 0.371 µM (active), the GI50 [8] was 0.389 µM (active) and the GI50 [9] was 0.361 µM (active). The GI50 [10] was 0.28 µM (active), the GI50 [12] was 0.448 µM (active) and the GI50 [13] was 0.348 µM (active). For the same compound, the GI50 [14] was 0.577 µM (active), the GI50 [15] was 0.518 µM (active) and the GI50 [16] was 0.611 µM (active). For the same compound, the GI50 [20] was 0.679 µM (active), the GI50 [17] was 0.6 µM (active) and the GI50 [18] was 0.324 µM (active). For the same compound, the GI50 [19] was 0.292 µM (active).
